# Measured values as given in ChEMBL document CHEMBL3885881, “DrugMatrix”.
# Species on record: Rattus norvegicus
# Test: DrugMatrix - Regimen: Daily Repeat
# Type: toxicity, organism-based, Sprague-Dawley
# Set-up: regimen Daily Repeat, gender Male, age 6-8 weeks
# Details: in vivo, sc, route subcutaneous, […]; for ABSOLUTE BASOPHIL / ABSOLUTE EOSINOPHIL / ABSOLUTE LYMPHOCYTE / ABSOLUTE MONOCYTE / ABSOLUTE SEGMENTED NEUTROPHIL / BASOPHIL / EOSINOPHIL / ERYTHROCYTE COUNT / HEMATOCRIT / HEMOGLOBIN / LEUKOCYTE COUNT / LYMPHOCYTE / MEAN CORPUSCULAR HEMOGLOBIN / MEAN CORPUSCULAR HEMOGLOBIN CONCENTRATION / MEAN CORPUSCULAR VOLUME / MONOCYTE / NEUTROPHIL / NUCLEATED RED BLOOD CELLS / PLATELET COUNT: tissue Blood; for ALANINE AMINOTRANSFERASE / ALBUMIN / ALKALINE PHOSPHATASE / ASPARTATE AMINOTRANSFERASE / BLOOD UREA NITROGEN / CARBON DIOXIDE / CHLORIDE / CHOLESTEROL / CREATINE PHOSPHOKINASE / CREATININE / GLUCOSE / LACTATE DEHYDROGENASE / LIPASE / PHOSPHORUS / POTASSIUM / SODIUM / TOTAL BILIRUBIN / TOTAL PROTEIN / URIC ACID: tissue Plasma
# [1] = 7 mg/kg, 72 h, dose level High, time 3 day
# [2] = 7 mg/kg, 120 h, dose level High, time 5 day
# [3] = 72 h, dose 1.5 mg/Kg, dose level Low, time 3 day
# [4] = 120 h, dose 1.5 mg/Kg, dose level Low, time 5 day
smiles,measurement,setting,value
CC1=C(/C=C/C(C)=C/C=C/C(C)=C/C(=O)O)C(C)(C)CCC1 [TRETINOIN],ABSOLUTE BASOPHIL,[1],0 CELLS/uL
same,ABSOLUTE EOSINOPHIL,[1],0 CELLS/uL
same,ABSOLUTE LYMPHOCYTE,[1],16685.33 CELLS/uL
same,ABSOLUTE MONOCYTE,[1],222.33 CELLS/uL
same,ABSOLUTE SEGMENTED NEUTROPHIL,[1],2859 CELLS/uL
same,BASOPHIL,[1],0%
same,EOSINOPHIL,[1],0%
same,ERYTHROCYTE COUNT,[1],5.42 x10E6/uL
same,HEMATOCRIT,[1],34.57%
same,HEMOGLOBIN,[1],12.7 G/DL
same,LEUKOCYTE COUNT,[1],19.77 x10E3/uL
same,LYMPHOCYTE,[1],84%
same,MEAN CORPUSCULAR HEMOGLOBIN,[1],23.43 pg
same,MEAN CORPUSCULAR HEMOGLOBIN CONCENTRATION,[1],36.73 G/DL
same,MEAN CORPUSCULAR VOLUME,[1],63.77 fL
same,MONOCYTE,[1],1%
same,NEUTROPHIL,[1],15%
same,NUCLEATED RED BLOOD CELLS,[1],0 /100WBC
same,PLATELET COUNT,[1],1323.33 x10E3/uL
same,ALANINE AMINOTRANSFERASE,[1],50 u/L
same,ALBUMIN,[1],4.03 G/DL
same,ALKALINE PHOSPHATASE,[1],328.67 u/L
same,ASPARTATE AMINOTRANSFERASE,[1],77.33 u/L
same,BLOOD UREA NITROGEN,[1],15.67 mg/dL
same,CARBON DIOXIDE,[1],15 mmol/L
same,CHLORIDE,[1],103.67 MEQ/L
same,CHOLESTEROL,[1],79 mg/dL
same,CREATINE PHOSPHOKINASE,[1],311.33 u/L
same,CREATININE,[1],0.19 mg/dL
same,GLUCOSE,[1],165.33 mg/dL
same,LACTATE DEHYDROGENASE,[1],120.33 u/L
same,LIPASE,[1],9.67 u/L
same,PHOSPHORUS,[1],13.53 mg/dL
same,POTASSIUM,[1],7.16 MEQ/L
same,SODIUM,[1],147 MEQ/L
same,TOTAL BILIRUBIN,[1],0.2 mg/dL
same,TOTAL PROTEIN,[1],5.97 G/DL
same,URIC ACID,[1],1.5 mg/dL
same,ABSOLUTE BASOPHIL,[2],0 CELLS/uL
same,ABSOLUTE EOSINOPHIL,[2],71.67 CELLS/uL
same,ABSOLUTE LYMPHOCYTE,[2],17691.67 CELLS/uL
same,ABSOLUTE MONOCYTE,[2],531.67 CELLS/uL
same,ABSOLUTE SEGMENTED NEUTROPHIL,[2],3905 CELLS/uL
same,BASOPHIL,[2],0%
same,EOSINOPHIL,[2],0.33%
same,ERYTHROCYTE COUNT,[2],5.84 x10E6/uL
same,HEMATOCRIT,[2],36.1%
same,HEMOGLOBIN,[2],13.37 G/DL
same,LEUKOCYTE COUNT,[2],22.2 x10E3/uL
same,LYMPHOCYTE,[2],79.67%
same,MEAN CORPUSCULAR HEMOGLOBIN,[2],22.9 pg
same,MEAN CORPUSCULAR HEMOGLOBIN CONCENTRATION,[2],37.03 G/DL
same,MEAN CORPUSCULAR VOLUME,[2],61.8 fL
same,MONOCYTE,[2],2.33%
same,NEUTROPHIL,[2],17.67%
same,NUCLEATED RED BLOOD CELLS,[2],0 /100WBC
same,PLATELET COUNT,[2],1087.33 x10E3/uL
same,ALANINE AMINOTRANSFERASE,[2],46.33 u/L
same,ALBUMIN,[2],3.87 G/DL
same,ALKALINE PHOSPHATASE,[2],319.67 u/L
same,ASPARTATE AMINOTRANSFERASE,[2],88 u/L
same,BLOOD UREA NITROGEN,[2],14.67 mg/dL
same,CARBON DIOXIDE,[2],33.33 mmol/L
same,CHLORIDE,[2],103.33 MEQ/L
same,CHOLESTEROL,[2],75.67 mg/dL
same,CREATINE PHOSPHOKINASE,[2],348 u/L
same,CREATININE,[2],0.28 mg/dL
same,GLUCOSE,[2],172.33 mg/dL
same,LACTATE DEHYDROGENASE,[2],105.67 u/L
same,LIPASE,[2],12 u/L
same,PHOSPHORUS,[2],13.8 mg/dL
same,POTASSIUM,[2],6.84 MEQ/L
same,SODIUM,[2],147.23 MEQ/L
same,TOTAL BILIRUBIN,[2],0.13 mg/dL
same,TOTAL PROTEIN,[2],6.07 G/DL
same,URIC ACID,[2],1.8 mg/dL
same,ABSOLUTE BASOPHIL,[3],0 CELLS/uL
same,ABSOLUTE EOSINOPHIL,[3],41.67 CELLS/uL
same,ABSOLUTE LYMPHOCYTE,[3],10665.33 CELLS/uL
same,ABSOLUTE MONOCYTE,[3],55.67 CELLS/uL
same,ABSOLUTE SEGMENTED NEUTROPHIL,[3],2104 CELLS/uL
same,BASOPHIL,[3],0%
same,EOSINOPHIL,[3],0.33%
same,ERYTHROCYTE COUNT,[3],4.74 x10E6/uL
same,HEMATOCRIT,[3],30.27%
same,HEMOGLOBIN,[3],11.93 G/DL
same,LEUKOCYTE COUNT,[3],12.87 x10E3/uL
same,LYMPHOCYTE,[3],83.67%
same,MEAN CORPUSCULAR HEMOGLOBIN,[3],25.23 pg
same,MEAN CORPUSCULAR HEMOGLOBIN CONCENTRATION,[3],39.47 G/DL
same,MEAN CORPUSCULAR VOLUME,[3],63.87 fL
same,MONOCYTE,[3],0.33%
same,NEUTROPHIL,[3],15.67%
same,NUCLEATED RED BLOOD CELLS,[3],0 /100WBC
same,PLATELET COUNT,[3],1093.33 x10E3/uL
same,ALANINE AMINOTRANSFERASE,[3],51 u/L
same,ALBUMIN,[3],4.23 G/DL
same,ALKALINE PHOSPHATASE,[3],460.67 u/L
same,ASPARTATE AMINOTRANSFERASE,[3],100 u/L
same,BLOOD UREA NITROGEN,[3],15.67 mg/dL
same,CARBON DIOXIDE,[3],22.33 mmol/L
same,CHLORIDE,[3],107.67 MEQ/L
same,CHOLESTEROL,[3],98.33 mg/dL
same,CREATINE PHOSPHOKINASE,[3],387.67 u/L
same,CREATININE,[3],0.23 mg/dL
same,GLUCOSE,[3],164.33 mg/dL
same,LACTATE DEHYDROGENASE,[3],522.33 u/L
same,LIPASE,[3],11.33 u/L
same,PHOSPHORUS,[3],12.5 mg/dL
same,POTASSIUM,[3],6.67 MEQ/L
same,SODIUM,[3],150.27 MEQ/L
same,TOTAL BILIRUBIN,[3],0.27 mg/dL
same,TOTAL PROTEIN,[3],6.27 G/DL
same,URIC ACID,[3],1.97 mg/dL
same,ABSOLUTE BASOPHIL,[4],0 CELLS/uL
same,ABSOLUTE EOSINOPHIL,[4],0 CELLS/uL
same,ABSOLUTE LYMPHOCYTE,[4],9182.33 CELLS/uL
same,ABSOLUTE MONOCYTE,[4],21 CELLS/uL
same,ABSOLUTE SEGMENTED NEUTROPHIL,[4],1630 CELLS/uL
same,BASOPHIL,[4],0%
same,EOSINOPHIL,[4],0%
same,ERYTHROCYTE COUNT,[4],5.54 x10E6/uL
same,HEMATOCRIT,[4],34.87%
same,HEMOGLOBIN,[4],12.9 G/DL
same,LEUKOCYTE COUNT,[4],10.83 x10E3/uL
same,LYMPHOCYTE,[4],85%
same,MEAN CORPUSCULAR HEMOGLOBIN,[4],23.27 pg
same,MEAN CORPUSCULAR HEMOGLOBIN CONCENTRATION,[4],37 G/DL
same,MEAN CORPUSCULAR VOLUME,[4],62.9 fL
same,MONOCYTE,[4],0.33%
same,NEUTROPHIL,[4],14.67%
same,NUCLEATED RED BLOOD CELLS,[4],0 /100WBC
same,PLATELET COUNT,[4],981.67 x10E3/uL
same,ALANINE AMINOTRANSFERASE,[4],52 u/L
same,ALBUMIN,[4],3.9 G/DL
same,ALKALINE PHOSPHATASE,[4],336.33 u/L
same,ASPARTATE AMINOTRANSFERASE,[4],91 u/L
same,BLOOD UREA NITROGEN,[4],16.33 mg/dL
same,CARBON DIOXIDE,[4],24.33 mmol/L
same,CHLORIDE,[4],107 MEQ/L
same,CHOLESTEROL,[4],79 mg/dL
same,CREATINE PHOSPHOKINASE,[4],270.33 u/L
same,CREATININE,[4],0.17 mg/dL
same,GLUCOSE,[4],180.33 mg/dL
same,LACTATE DEHYDROGENASE,[4],147.67 u/L
same,LIPASE,[4],10.33 u/L
same,PHOSPHORUS,[4],14.17 mg/dL
same,POTASSIUM,[4],6.48 MEQ/L
same,SODIUM,[4],147.97 MEQ/L
same,TOTAL BILIRUBIN,[4],0.23 mg/dL
same,TOTAL PROTEIN,[4],6.07 G/DL
same,URIC ACID,[4],2.07 mg/dL
